Strand notation (5' to 3'): a small letter for the sugar, then the base; units joined by * are phosphorothioate-linked, units joined directly phosphodiester-linked; [ ] holds rarer units or linkages, { } end groups; capitals alone tell only the bases. e = 2'-O-(2-methoxyethyl) (MOE); [5mC] = 5-methylcytosine; d = 2'-deoxy (DNA)
System: human PKK mRNA
Test: Antisense inhibition of human PKK mRNA in HepaRG cells, 5,000 nM (Example 2)
Format: cell-based
Settings: electroporation with 5,000 nM antisense oligonucleotide, approx. 24 hours, PKK mRNA by RT-PCR (RTS3454), relative to untreated control cells
Procedure, shortened: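 Percent inhibition of PKK mRNA is relative to untreated control, with qRT-PCR (probe set RTS3454) values adjusted to total RNA by RIBOGREEN. Oligonucleotides, fully phosphorothioate 2′-MOE gapmers, were delivered at 5,000 nM by electroporation into 20,000 HepaRG cells/well for about 24 h.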

[1] = Table 9 experiment, HepaRG cells, 20,000 cells per well
[2] = Table 10 experiment, HepaRG cells, 20,000 cells per well

| Substance | % inhibition (Table 8, HepaRG cells) | % inhibition [1] | % inhibition [2] |
| --- | --- | --- | --- |
| 547433 (eG*eT*e[5mC]*e[5mC]*e[5mC]*d[5mC]*dA*dG*dT*dG*dT*dT*dA*d[5mC]*dA*e[5mC]*eA*eA*eT*e[5mC]; antisense) [compound 547433] | 63% |  |  |
| 547434 (eA*eG*eA*eG*eT*dT*dT*dG*dT*dT*d[5mC]*d[5mC]*dT*d[5mC]*d[5mC]*eA*eA*e[5mC]*eA*eA; antisense) [compound 547434] | 54% |  |  |
| 547435 (antisense e[5mC]*eA*eA*eG*eA*dA*dG*dA*dG*dT*dT*dT*dG*dT*dT*e[5mC]*e[5mC]*eT*e[5mC]*e[5mC]) [compound 547435] | 85% |  |  |
| 547436 (antisense e[5mC]*eT*e[5mC]*e[5mC]*e[5mC]*d[5mC]*dA*dA*dG*dA*dA*dG*dA*dG*dT*eT*eT*eG*eT*eT) [compound 547436] | 0% |  |  |
| 547437 (antisense e[5mC]*eT*e[5mC]*eT*e[5mC]*d[5mC]*d[5mC]*d[5mC]*dA*dA*dG*dA*dA*dG*dA*eG*eT*eT*eT*eG) [compound 547437] | 50% |  |  |
| 547438 (antisense eG*eG*eG*e[5mC]*e[5mC]*dA*d[5mC]*dT*d[5mC]*dT*d[5mC]*d[5mC]*d[5mC]*d[5mC]*dA*eA*eG*eA*eA*eG) [compound 547438] | 82% |  |  |
| 547439 (antisense eT*e[5mC]*eT*eG*eA*dG*d[5mC]*dT*dG*dT*d[5mC]*dA*dG*d[5mC]*dT*eT*e[5mC]*eA*e[5mC]*e[5mC]) [compound 547439] | 85% |  |  |
| 547440 (antisense eT*e[5mC]*e[5mC]*eT*eA*dT*dG*dA*dG*dT*dG*dA*d[5mC]*d[5mC]*d[5mC]*eT*e[5mC]*e[5mC]*eA*e[5mC]) [compound 547440] | 67% |  |  |
| 547441 (antisense eG*eG*eT*eG*eT*d[5mC]*d[5mC]*dT*dA*dT*dG*dA*dG*dT*dG*eA*e[5mC]*e[5mC]*e[5mC]*eT) [compound 547441] | 62% |  |  |
| 547442 (antisense eT*eG*eG*eT*eG*dT*d[5mC]*d[5mC]*dT*dA*dT*dG*dA*dG*dT*eG*eA*e[5mC]*e[5mC]*e[5mC]) [compound 547442] | 42% |  |  |
| 547443 (antisense e[5mC]*e[5mC]*eA*e[5mC]*eT*dG*dG*dT*dG*dT*d[5mC]*d[5mC]*dT*dA*dT*eG*eA*eG*eT*eG) [compound 547443] | 70% |  |  |
| 547444 (antisense e[5mC]*eT*eA*eT*eA*dG*dA*dT*dG*d[5mC]*dG*d[5mC]*d[5mC]*dA*dA*eA*e[5mC]*eA*eT*e[5mC]) [compound 547444] | 71% |  |  |
| 547446 (antisense eT*eT*eG*eT*eG*dA*dG*dA*dA*dA*dG*dG*dT*dG*dT*eA*eT*e[5mC]*eT*eT) [compound 547446] | 84% |  |  |
| 547447 (antisense eA*eT*eT*eT*eG*dT*dG*dA*dG*dA*dA*dA*dG*dG*dT*eG*eT*eA*eT*e[5mC]) [compound 547447] | 80% |  |  |
| 547448 (antisense eT*eT*eA*eT*eT*dT*dG*dT*dG*dA*dG*dA*dA*dA*dG*eG*eT*eG*eT*eA) [compound 547448] |  | 75% | 83% |
| 547449 (antisense eT*eT*eT*eT*eA*dT*dT*dT*dG*dT*dG*dA*dG*dA*dA*eA*eG*eG*eT*eG) [compound 547449] |  | 71% | 73% |
| 547450 (antisense e[5mC]*eT*e[5mC]*eT*eT*dT*dT*dA*dT*dT*dT*dG*dT*dG*dA*eG*eA*eA*eA*eG) [compound 547450] |  | 71% | 67% |

| Substance | % inhibition (Table 8, HepaRG cells) | % inhibition [1] | % inhibition [2] |
| --- | --- | --- | --- |
| 547451 (antisense eT*eT*eG*eG*eT*dG*dA*dA*dT*dA*dA*dT*dA*dA*dT*e[5mC]*eT*e[5mC]*eT*eT) [compound 547451] |  | 75% | 64% |
| 547452 (antisense eG*eT*eT*eT*eT*dG*dG*dT*dG*dA*dA*dT*dA*dA*dT*eA*eA*eT*e[5mC]*eT) [compound 547452] |  | 47% | 62% |
| 547458 (antisense eT*eA*eT*e[5mC]*eA*dA*dG*dG*d[5mC]*dG*dA*dT*dA*dT*d[5mC]*eA*eT*eG*eA*eT) [compound 547458] |  | 84% | 64% |
| 547459 (antisense eG*eA*eG*eT*eT*dT*dT*dA*dT*d[5mC]*dA*dA*dG*dG*d[5mC]*eG*eA*eT*eA*eT) [compound 547459] |  | 28% | 51% |
| 547460 (antisense e[5mC]*eT*eG*eG*eA*dG*dT*dT*dT*dT*dA*dT*d[5mC]*dA*dA*eG*eG*e[5mC]*eG*eA) [compound 547460] |  | 72% | 75% |
| 547461 (antisense eG*eT*eA*eA*eT*dT*d[5mC]*dA*dA*dA*dG*dG*dA*dG*d[5mC]*e[5mC]*eT*eG*eG*eA) [compound 547461] |  | 49% | 55% |
| 547462 (antisense eG*eT*eG*eT*eA*dA*dT*dT*d[5mC]*dA*dA*dA*dG*dG*dA*eG*e[5mC]*e[5mC]*eT*eG) [compound 547462] |  | 59% | 54% |
| 547463 (antisense eT*eA*eG*eG*e[5mC]*dA*dT*dA*dT*dT*dG*dG*dT*dT*dT*eT*eT*eG*eG*eA) [compound 547463] |  | 74% | 84% |
| 547465 (antisense eA*eA*eA*eT*eT*dG*dT*dG*d[5mC]*dT*dT*dG*dT*dG*dT*e[5mC]*eA*e[5mC]*e[5mC]*eT) [compound 547465] |  | 88% | 85% |
| 547466 (antisense eG*eT*eA*eT*eA*dA*dA*dT*dT*dG*dT*dG*d[5mC]*dT*dT*eG*eT*eG*eT*e[5mC]) [compound 547466] |  | 82% | 43% |
| 547467 (antisense eT*eG*eG*eT*eA*dT*dA*dA*dA*dT*dT*dG*dT*dG*d[5mC]*eT*eT*eG*eT*eG) [compound 547467] |  | 80% | 65% |
| 547468 (antisense eG*eT*eT*eG*eG*dT*dA*dT*dA*dA*dA*dT*dT*dG*dT*eG*e[5mC]*eT*eT*eG) [compound 547468] |  | 61% | 46% |
| 547469 (antisense eT*eT*eA*e[5mC]*e[5mC]*d[5mC]*dA*dA*d[5mC]*dA*dG*dT*dT*dG*dG*eT*eA*eT*eA*eA) [compound 547469] |  | 67% | 50% |
| 547470 (antisense eT*e[5mC]*eG*eA*eG*dA*dA*dG*d[5mC]*d[5mC]*d[5mC]*d[5mC]*dA*dT*d[5mC]*e[5mC]*eG*eG*eT*eT) [compound 547470] |  | 70% | 68% |
| 547471 (antisense e[5mC]*e[5mC]*eT*eT*eT*d[5mC]*dT*d[5mC]*d[5mC]*dT*dT*d[5mC]*dG*dA*dG*eA*eA*eG*e[5mC]*e[5mC]) [compound 547471] |  | 58% | 43% |
| 547472 (antisense eT*e[5mC]*eA*e[5mC]*e[5mC]*dT*dT*dT*d[5mC]*dT*d[5mC]*d[5mC]*dT*dT*d[5mC]*eG*eA*eG*eA*eA) [compound 547472] |  | 44% | 42% |
| 547473 (antisense eT*eT*eT*eG*eG*dA*dT*dT*dT*d[5mC]*dA*d[5mC]*d[5mC]*dT*dT*eT*e[5mC]*eT*e[5mC]*e[5mC]) [compound 547473] |  | 5% | 26% |

Source: patent publication US11840686B2, “Modulation of prekallikrein (PKK) expression” (Ionis Pharmaceuticals, Inc., priority 2013, dated 2023)
